The record followed here is PubChem BioAssay (NCI).

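Test compounds were applied to cells in 96-well plates for 48 hours at 5 doses. Definition used: TGI = concentration required for complete inhibition of growth.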

Among the test systems are HT29 colon; SK-MEL-28 melanoma; MDA-N; M14 melanoma; SK-MEL-2 melanoma; TK-10 renal; HCT-15 colon; SNB-19 CNS; OVCAR-5 ovarian; 786-0 renal; NCI-H23 lung; KM12 colon; U251 CNS; MALME-3M melanoma; ACHN renal; NCI-H226 lung; MOLT-4 leukemia; MCF7 breast; OVCAR-4 ovarian; HL-60(TB) leukemia.
Assay in all cases: NCI anticancer screen, dose series, 48 h

Regarding `CN(N=O)c1nc2c(C(N)=O)ncn2s1`, the TGI in the test on HT29 colon, in the test with SK-MEL-28 melanoma, in the test on MDA-N, in the test with M14 melanoma, with SK-MEL-2 melanoma and in the test with TK-10 renal was more than 100 µM each time. The TGI in the test with HCT-15 colon, with SNB-19 CNS, with OVCAR-5 ovarian, in the test on 786-0 renal, with NCI-H23 lung and in the test on KM12 colon was more than 100 µM each time. The TGI in the test on U251 CNS, in the test on MALME-3M melanoma, in the test with ACHN renal, with NCI-H226 lung, with MOLT-4 leukemia and in the test on MCF7 breast was more than 100 µM each time. In the test on OVCAR-4 ovarian, this compound displayed a TGI of more than 100 µM.

In the case of `CC(Cn1c2c(c3cc(O)ccc31)CCc1ccc(O)cc1-2)N(C)C` (configuration not stated), the TGI with HT29 colon is 35.8 µM; in the test with MDA-N, 48.1 µM; in the test on HL-60(TB) leukemia it was more than 100 µM; with M14 melanoma it was 28.8 µM; with SK-MEL-2 melanoma, 31.1 µM; in the test on TK-10 renal, 37.1 µM. Further, the TGI in the test on HCT-15 colon was 30.2 µM; in the test with SNB-19 CNS it was 37.4 µM; with OVCAR-5 ovarian, 37.2 µM; in the test with 786-0 renal it was 35.9 µM; in the test on NCI-H23 lung it was 41.2 µM; in the test with KM12 colon, 29.9 µM. Further, the TGI in the test on U251 CNS is more than 100 µM; with MALME-3M melanoma it was 30.8 µM; in the test with ACHN renal, 30.1 µM; with NCI-H226 lung, 37.3 µM; in the test on MOLT-4 leukemia, more than 100 µM; in the test with MCF7 breast, 36.3 µM.

Consider `CO/C(=N\N=C\c1ccc(Cl)c(Cl)c1)c1ccncc1`, for which the TGI in the test on SK-MEL-28 melanoma, with MDA-N, with HL-60(TB) leukemia, in the test on M14 melanoma, in the test with SK-MEL-2 melanoma and in the test on TK-10 renal was more than 10 µM throughout. Moreover, the TGI in the test on HCT-15 colon, in the test with SNB-19 CNS, in the test on OVCAR-5 ovarian, in the test on 786-0 renal, with NCI-H23 lung and with KM12 colon was more than 10 µM each time. Also, the TGI in the test on U251 CNS, in the test with MALME-3M melanoma, with ACHN renal, with NCI-H226 lung, with MOLT-4 leukemia and in the test on MCF7 breast was more than 10 µM in each case.

`Cc1c(/C=N/NC(=S)N2CCCCC2)c(=O)n(-c2ccccc2)n1C`: the TGI with HT29 colon is more than 100 µM; in the test on SK-MEL-28 melanoma, more than 100 µM; in the test on MDA-N, more than 100 µM; with HL-60(TB) leukemia, 95 µM; in the test on M14 melanoma, more than 100 µM; in the test on TK-10 renal it was more than 100 µM. Besides, the TGI in the test on HCT-15 colon, with SNB-19 CNS, with OVCAR-5 ovarian, in the test with 786-0 renal, in the test with NCI-H23 lung and in the test on KM12 colon was more than 100 µM in each case. Moreover, the TGI in the test with U251 CNS is more than 100 µM; in the test on MALME-3M melanoma it was more than 100 µM; with ACHN renal it was 98.5 µM; in the test on NCI-H226 lung, more than 100 µM; with MOLT-4 leukemia, more than 100 µM; in the test on MCF7 breast, more than 100 µM.

As for `COC(=O)C(=O)C(C(=O)C(=O)Nc1ccc(C)cc1C)c1nc2ccc(Cl)cc2[nH]c1=O` (configuration not stated), the TGI with HT29 colon, in the test with SK-MEL-28 melanoma, in the test with MDA-N, in the test with HL-60(TB) leukemia, with M14 melanoma and in the test with SK-MEL-2 melanoma was more than 100 µM throughout. Further, the TGI with TK-10 renal, in the test with HCT-15 colon, in the test with SNB-19 CNS, in the test with OVCAR-5 ovarian, in the test with 786-0 renal and with NCI-H23 lung was more than 100 µM each time. In addition, the TGI in the test on KM12 colon, in the test with U251 CNS, in the test with ACHN renal, with NCI-H226 lung, in the test with MOLT-4 leukemia and with MCF7 breast was more than 100 µM each time. The TGI in the test with OVCAR-4 ovarian was more than 100 µM.

Consider `O=C1OC([C@H](O)c2cccnc2)c2ccccc21` (some centres not stated), for which the TGI in the test on HT29 colon, in the test with SK-MEL-28 melanoma, in the test on MDA-N, in the test with HL-60(TB) leukemia, in the test with M14 melanoma and in the test on SK-MEL-2 melanoma was more than 10 µM each time. The TGI in the test on TK-10 renal, with HCT-15 colon, with SNB-19 CNS, in the test with OVCAR-5 ovarian, with 786-0 renal and in the test on NCI-H23 lung was more than 10 µM each time. Moreover, the TGI in the test on KM12 colon, with U251 CNS, with ACHN renal, in the test on NCI-H226 lung, in the test on MOLT-4 leukemia and in the test with MCF7 breast was more than 10 µM each time. In the test with OVCAR-4 ovarian, this compound displayed a TGI of more than 10 µM.

On to `Nc1ccccc1C(=O)N=Nc1c(O)[nH]c2ccccc12`, for which the TGI in the test with HT29 colon, in the test on MDA-N, in the test on M14 melanoma, with SK-MEL-2 melanoma, in the test on TK-10 renal and in the test with HCT-15 colon was more than 100 µM each time. Also, the TGI in the test on SNB-19 CNS, in the test with OVCAR-5 ovarian, in the test on 786-0 renal, with NCI-H23 lung, with KM12 colon and in the test with U251 CNS was more than 100 µM each time. Further, the TGI in the test with MALME-3M melanoma, in the test on ACHN renal, with NCI-H226 lung, in the test on MOLT-4 leukemia, in the test with MCF7 breast and in the test with OVCAR-4 ovarian was more than 100 µM in each case.

For the compound `Cc1cc(O)c(/C=N/C(=S)Nc2ccc(S(N)(=O)=O)cc2)c(=O)o1`, the TGI in the test on HT29 colon, in the test with SK-MEL-28 melanoma, with MDA-N, in the test with HL-60(TB) leukemia, in the test on M14 melanoma and in the test on SK-MEL-2 melanoma was more than 100 µM in each case. The TGI in the test with TK-10 renal, with HCT-15 colon, with SNB-19 CNS, with OVCAR-5 ovarian, in the test on 786-0 renal and with NCI-H23 lung was more than 100 µM in each case. For the same compound, the TGI with KM12 colon, with U251 CNS, in the test with ACHN renal, with NCI-H226 lung, with MOLT-4 leukemia and in the test on MCF7 breast was more than 100 µM throughout. The TGI with OVCAR-4 ovarian was more than 100 µM.

`CCOC(=O)c1c[nH]c(C(=O)C=[N+]=[N-])c1C1CCN(CC)C1=S` (configuration not stated): the TGI in the test with HT29 colon, in the test on SK-MEL-28 melanoma, in the test on MDA-N, in the test on M14 melanoma, in the test on SK-MEL-2 melanoma and with TK-10 renal was more than 100 µM throughout. The TGI in the test with HCT-15 colon, with SNB-19 CNS, in the test with OVCAR-5 ovarian, in the test on 786-0 renal, with NCI-H23 lung and in the test on KM12 colon was more than 100 µM in each case. Besides, the TGI with U251 CNS, in the test with MALME-3M melanoma, with ACHN renal, in the test with MOLT-4 leukemia, in the test with MCF7 breast and with OVCAR-4 ovarian was more than 100 µM in each case.

On to `CSc1nc(=O)cnn1C`, for which the TGI with HT29 colon, in the test with SK-MEL-28 melanoma, in the test on MDA-N, with M14 melanoma, in the test on SK-MEL-2 melanoma and with TK-10 renal was more than 100 µM in each case. Besides, the TGI in the test on HCT-15 colon, in the test on SNB-19 CNS, in the test on OVCAR-5 ovarian, in the test with 786-0 renal, in the test on NCI-H23 lung and in the test with KM12 colon was more than 100 µM throughout. In addition, the TGI with U251 CNS, in the test with MALME-3M melanoma, in the test with ACHN renal, in the test with NCI-H226 lung, with MOLT-4 leukemia and in the test with MCF7 breast was more than 100 µM each time. In addition, in the test on OVCAR-4 ovarian, the TGI is more than 100 µM.

In the case of `COc1ccccc1N/C(SCc1ccccc1)=C(/C(Cl)=C(Cl)Cl)[N+](=O)[O-]`, the TGI in the test with HT29 colon is 42.4 µM; in the test with SK-MEL-28 melanoma, 28.5 µM; in the test with MDA-N it was more than 100 µM; in the test on M14 melanoma, more than 100 µM; with SK-MEL-2 melanoma it was more than 100 µM; in the test with HCT-15 colon, 49.8 µM. Further, the TGI in the test on SNB-19 CNS was more than 100 µM; in the test on OVCAR-5 ovarian it was more than 100 µM; in the test with 786-0 renal, 97.8 µM; in the test on NCI-H23 lung, 31.7 µM; in the test on KM12 colon, more than 100 µM; in the test on U251 CNS, 47.3 µM. Besides, the TGI in the test with MALME-3M melanoma was 38.7 µM; in the test on ACHN renal, more than 100 µM; with NCI-H226 lung it was more than 100 µM; in the test on MOLT-4 leukemia it was more than 100 µM; with MCF7 breast it was more than 100 µM; with OVCAR-4 ovarian it was 47.7 µM.

Regarding `CC(=O)/C(=C\I)c1ccccc1`, the TGI in the test on HT29 colon worked out at 2.29 µM; in the test on SK-MEL-28 melanoma, 10.4 µM; in the test with MDA-N, 3.28 µM; in the test with HL-60(TB) leukemia, 3.49 µM; in the test on M14 melanoma it was 4.4 µM; in the test on SK-MEL-2 melanoma, 4.75 µM. The TGI with TK-10 renal was found to be 26.8 µM; in the test on HCT-15 colon, 3.35 µM; in the test on SNB-19 CNS, 24.5 µM; in the test on OVCAR-5 ovarian it was 2.99 µM; with 786-0 renal, 4.13 µM; with NCI-H23 lung, 4.99 µM. Further, the TGI in the test with KM12 colon came out at 13.3 µM; in the test on U251 CNS, 5.37 µM; with MALME-3M melanoma, 3.33 µM; with NCI-H226 lung, 47.6 µM; with MOLT-4 leukemia, 5.35 µM; in the test on MCF7 breast it was 4.05 µM.

In the case of `CCSC1=N/C(=C\c2ccco2)C(=O)N1`, the TGI in the test on HT29 colon, in the test on SK-MEL-28 melanoma, with MDA-N, in the test on M14 melanoma, in the test with SK-MEL-2 melanoma and with TK-10 renal was more than 100 µM in each case. Moreover, the TGI in the test on HCT-15 colon, with SNB-19 CNS, in the test on OVCAR-5 ovarian, in the test on 786-0 renal, in the test on NCI-H23 lung and with KM12 colon was more than 100 µM throughout. In addition, the TGI in the test with U251 CNS, in the test on MALME-3M melanoma, in the test on ACHN renal, in the test with NCI-H226 lung, in the test with MOLT-4 leukemia and in the test with MCF7 breast was more than 100 µM each time.

`O=C1Oc2ccccc2C(=O)/C1=C/N1C(=O)CNC1=S`: the TGI in the test with HT29 colon, in the test on SK-MEL-28 melanoma, in the test on MDA-N, in the test on HL-60(TB) leukemia, in the test with M14 melanoma and in the test on SK-MEL-2 melanoma was more than 100 µM each time. Besides, the TGI in the test with TK-10 renal, in the test with HCT-15 colon, with SNB-19 CNS, in the test with OVCAR-5 ovarian, in the test with 786-0 renal and in the test on NCI-H23 lung was more than 100 µM throughout. Moreover, the TGI in the test on KM12 colon, in the test with U251 CNS, in the test with ACHN renal, with NCI-H226 lung, with MOLT-4 leukemia and in the test with MCF7 breast was more than 100 µM each time. In the test with OVCAR-4 ovarian, this compound had a TGI of more than 100 µM.

On to `CCCCCCCCCCCCOCC1(COCCCCCCCCCCCC)COC(c2ccc(N)cc2)OC1`, for which the TGI in the test with HT29 colon, in the test with SK-MEL-28 melanoma, with MDA-N, in the test with M14 melanoma, in the test with SK-MEL-2 melanoma and in the test with TK-10 renal was more than 100 µM throughout. In addition, the TGI with HCT-15 colon, in the test with SNB-19 CNS, with OVCAR-5 ovarian, with 786-0 renal, in the test on NCI-H23 lung and in the test on KM12 colon was more than 100 µM each time. For the same compound, the TGI in the test on U251 CNS, with MALME-3M melanoma, in the test with ACHN renal, in the test on NCI-H226 lung, in the test with MOLT-4 leukemia and with MCF7 breast was more than 100 µM each time. Further, in the test on OVCAR-4 ovarian, the TGI is more than 100 µM.
